According to patent publication US20240374761A1, “ANIMAL MODEL HAVING HOMOLOGOUS RECOMBINATION OF MOUSE PTH1 RECEPTOR” (RADIUS PHARMACEUTICALS, INC., priority 2021, published 2024):
Entries after “also recorded” stand apart in the source; their conditions may differ. Like-named read-outs stand apart in the source and are kept apart here.

Assays:
[1] = target: T1, human PTH1R (hPTH1R-KI mice) (Homo sapiens, UniProt Q03431); assay: Blood ionized calcium (Ca++) response to PTH ligand analog injection in hPTH1R-KI mice; assay type: in vivo, mouse; details: 40 nmol/kg subcutaneous
T1 construct: Met593 (followed by a stop codon); expressed in transfected cells; host or cells: homozygous hPTH1R-KI C57BL/6 mice (knock-in at the mouse Pth1r locus), in vivo
T1 sequence (Q03431 23-593 E90Y/S91D/E92V/E93P/K95Y/E96A): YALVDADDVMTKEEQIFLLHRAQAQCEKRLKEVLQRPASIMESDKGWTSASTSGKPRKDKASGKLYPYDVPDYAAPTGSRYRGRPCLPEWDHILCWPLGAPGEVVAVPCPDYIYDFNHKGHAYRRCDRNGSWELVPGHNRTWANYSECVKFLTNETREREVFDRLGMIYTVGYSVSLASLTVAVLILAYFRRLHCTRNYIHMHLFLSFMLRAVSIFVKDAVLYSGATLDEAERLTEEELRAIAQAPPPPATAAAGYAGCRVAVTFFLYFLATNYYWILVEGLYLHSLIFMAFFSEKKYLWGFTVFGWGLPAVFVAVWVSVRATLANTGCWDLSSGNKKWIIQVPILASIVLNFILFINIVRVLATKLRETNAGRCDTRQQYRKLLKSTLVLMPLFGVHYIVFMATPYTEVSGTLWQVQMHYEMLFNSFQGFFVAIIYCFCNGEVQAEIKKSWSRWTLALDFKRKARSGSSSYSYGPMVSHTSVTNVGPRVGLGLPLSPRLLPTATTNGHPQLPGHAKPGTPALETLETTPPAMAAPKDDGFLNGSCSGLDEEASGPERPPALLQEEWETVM
Description: (§1) The utility of the hPTH1R-KI mice of the present disclosure as a model for predicting the behavior of different PTH and PTHrP analog peptides was evaluated. Ligand-induced PTH1R signaling in bone and kidney results in a rapid increase in blood levels of free ionized calcium (Ca^++) and a decrease in blood levels of inorganic phosphorus (Pi); changes that occur through the promotion of the release of Ca and Pi from bone mineral stores, the reabsorption of Ca from the renal filtrate, and a suppression of Pi reabsorption in the kidney. Thus, blood Ca^++ and Pi levels were measured in WT and hPTH1R-KI mice before and at times after injection of PTH ligands.
Blood ionized calcium (Ca^++) levels were measured in homozygous mice comprising a heterologous polynucleotide comprising human Parathyroid Hormone 1 Receptor (hPTH1R) exons 4 to 16 (hereinafter “hPTH1R-KI” mice), and WT C57BL/6(n) mice, at age 10 weeks. Mice were treated in accordance with the ethical guidelines adopted by the Massachusetts General Hospital (MGH). Mice were injected subcutaneously in the interscapular region with vehicle (5 mM citrate, 150 mM NaCl, 0.05% Tween80, pH 5.0), or vehicle containing either PTH(1-34), PTHrP(1-36) or abaloparatide, each peptide at a dose of 40 nmol/kg of body weight, with five animals per group.
(§2) Blood was collected from a ˜2 mm tail vein incision and placed into heparinized capillary tube (Multi-cap-S, Siemens Healthcare Diagnostics Inc, Catalog No. 05656514) just prior to injection (t=0), and at 1, 2, 4 and 8 hours after injection, then immediately analyzed for pH-adjusted ionized calcium using a Siemens RapidLab 348 Ca^2+/pH analyzer.
Data was processed using Microsoft Excel 2016 and GraphPad Prism 8.0. Data is represented as means+/−standard error, and statistical significance was assessed using a two-tailed Students t-test. Two replicate experiments were performed on separated days for each set of 20 hPTH1R-KI and 20 WT control mice n hPTH1R-KI mice. The replicate experiments gave essentially the same result for the two groups, and the data (n=10) were combined as means+SEM.

[2] = target: T1, human PTH1R (hPTH1R-KI mice); assay: Serum inorganic phosphorus (Pi) response to PTH ligand analog injection in hPTH1R-KI mice; assay type: in vivo; details: 40 nmol/kg
Description: To assess changes to blood Pi in response to PTH ligand injection, 10-week-old hPTH1R-KI and wild-type mice were injected with PTH(1-34), PTHrP(1-36), or Abaloparatide (see Example 13) each at a dose of 40 nmol/kg (n=5 mice per group). Tail vein blood was collected into a 1 mL microcentrifuge tubes containing 3 μL 0.5 mM EDTA on ice at t=0, 1, 2, 4, and 8 hours post-injection. The blood samples were centrifuged at 8,000 rpm at 4° C. for 15 minutes, and plasma supernatant was collected and frozen at −80° C. Plasma phosphate was analyzed using a colorimetric phosphate assay kit (AbCam. UK, Catalog No. ab65622).

[3] = target: T1, human PTH1R (hPTH1R-KI mice); assay: Antagonist response: blood calcium after co-injection with PTH(1-34) in hPTH1R-KI mice; assay type: in vivo, mouse; details: 3-month-old hPTH1R-KI mice, 40 nmol/kg subcutaneous
Description: (§3) Briefly, to assess the responses to antagonist PTH analogs, 3-month-old WT or hPTH1R-KI mice were injected subcutaneously with either (1) vehicle, (2) vehicle containing PTH(1-34) alone at 40 nmol/kg, or (3) PTH(1-34) at 40 nmol/kg together with an antagonist peptide, LA-PTH(7-36) or [Leu^11,dTrp^12,Trp^23,Tyr^36]-PTHrP(7-36), each antagonist at a dose of 500 nmol/kg (n=5 mice per group). Blood was collected from the tail vein and calcium was measured as described above in Example 13.

[4] = cited from earlier work
[5] = target: T2, endogenous rodent PTH receptor (WT C57BL/6 mice) (Mus musculus, UniProt P41593); assay: Blood ionized calcium (Ca++) response to PTH ligand analog injection in wild-type mice; assay type: in vivo; details: 40 nmol/kg subcutaneous
T2 construct: WT mice expressing the endogenous rodent PTH receptor; endogenous in cells; host or cells: wild-type C57BL/6(n) mice, in vivo (bone and kidney)
T2 sequence (P41593 27-591): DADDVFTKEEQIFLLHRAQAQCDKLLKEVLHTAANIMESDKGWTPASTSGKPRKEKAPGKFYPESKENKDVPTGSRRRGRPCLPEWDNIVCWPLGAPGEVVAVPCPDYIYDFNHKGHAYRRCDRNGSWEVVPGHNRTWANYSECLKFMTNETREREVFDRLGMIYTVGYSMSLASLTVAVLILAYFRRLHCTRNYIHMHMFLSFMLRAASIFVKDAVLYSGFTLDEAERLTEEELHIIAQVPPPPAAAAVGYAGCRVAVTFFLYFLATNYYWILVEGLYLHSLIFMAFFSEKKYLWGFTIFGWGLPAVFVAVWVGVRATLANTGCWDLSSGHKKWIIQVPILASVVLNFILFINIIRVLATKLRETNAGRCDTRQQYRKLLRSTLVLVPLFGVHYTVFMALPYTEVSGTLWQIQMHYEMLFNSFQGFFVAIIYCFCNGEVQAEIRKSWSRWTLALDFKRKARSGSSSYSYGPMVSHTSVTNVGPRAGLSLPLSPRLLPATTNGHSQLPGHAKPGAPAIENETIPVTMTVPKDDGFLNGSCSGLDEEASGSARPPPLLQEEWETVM
Description: as §1
Blood ionized calcium (Ca^++) levels were measured in homozygous mice comprising a heterologous polynucleotide comprising human Parathyroid Hormone 1 Receptor (hPTH1R) exons 4 to 16 (hereinafter “hPTH1R-KI” mice), and WT C57BL/6(n) mice, at age 10 weeks. Mice were treated in accordance with the ethical guidelines adopted by the Massachusetts General Hospital (MGH). […]
as §2, with “analyzer. […]” for “analyzer.”

PTH1R (WT mice) = target: T3, PTH1R (WT mice) (Mus musculus, UniProt P41593); assay: Antagonist response: blood calcium after co-injection with PTH(1-34) in WT mice; assay type: in vivo; details: 3-month-old WT mice, 40 nmol/kg subcutaneous
T3 construct: WT mice expressing the endogenous rodent PTH receptor; endogenous in cells; host or cells: wild-type C57BL/6(n) mice, in vivo (bone and kidney)
T3 sequence (P41593 27-591): T2 sequence (P41593 27-591)
Description: as §3

[6] = test system: ovariectomy-induced osteopenic monkeys; details: cited from earlier work
[7] = test system: ovariectomy-induced osteopenic rats; details: cited from earlier work
[8] = target: T4, RG conformation of the PTH1R (Homo sapiens, UniProt Q03431); details: versus R0 conformation; compared with teriparatide / PTH and PTHrP ligands; cited from earlier work
T4 sequence (Q03431 27-593): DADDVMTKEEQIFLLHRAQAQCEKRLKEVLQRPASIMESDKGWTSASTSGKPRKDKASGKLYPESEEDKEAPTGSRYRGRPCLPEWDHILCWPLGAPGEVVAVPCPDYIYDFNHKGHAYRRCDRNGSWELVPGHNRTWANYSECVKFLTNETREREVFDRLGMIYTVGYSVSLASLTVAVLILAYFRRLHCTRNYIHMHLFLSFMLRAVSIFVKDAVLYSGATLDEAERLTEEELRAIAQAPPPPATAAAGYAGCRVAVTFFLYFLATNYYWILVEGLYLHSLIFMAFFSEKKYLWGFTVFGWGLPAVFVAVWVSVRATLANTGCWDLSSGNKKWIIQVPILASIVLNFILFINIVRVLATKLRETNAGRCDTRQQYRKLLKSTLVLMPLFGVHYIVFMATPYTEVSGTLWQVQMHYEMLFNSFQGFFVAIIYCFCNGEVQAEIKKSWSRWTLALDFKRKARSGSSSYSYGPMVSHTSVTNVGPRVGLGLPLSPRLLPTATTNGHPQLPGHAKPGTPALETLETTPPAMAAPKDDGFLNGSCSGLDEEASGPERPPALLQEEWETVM

| Compound | duration of calcemic response [1] | blood Ca++ levels at 4 hours [1] | phosphaturic response profile [2] | serum Pi levels at 2 hours post-injection [2] | blood calcium levels after PTH(1-34) alone [3] | rate of clearance from the blood ([4]; previous analyses) | difference in calcemic response duration compared to the other two ligands [5] | blood calcium levels after PTH(1-34) alone (PTH1R (WT mice)) | reversal of bone loss [6] | rate of clearance from the blood ([4]; in vivo) | reversal of bone loss [7] | binding selectivity for the RG conformation of PTH1R [8] |
| --- | --- | --- | --- | --- | --- | --- | --- | --- | --- | --- | --- | --- |
| CC[C@H](C)[C@H](NC(=O)[C@H](CCC(=O)O)NC(=O)[C@H](CO)NC(=O)[C@@H](NC(=O)[C@@H](N)CO)C(C)C)C(=O)N[C@@H](CCC(N)=O)C(=O)N[C@@H](CC(C)C)C(=O)N[C@@H](CCSC)C(=O)N[C@@H](Cc1cnc[nH]1)C(=O)N[C@@H](CC(N)=O)C(=O)N[C@@H](CC(C)C)C(=O)NCC(=O)N[C@@H](CCCCN)C(=O)N[C@@H](Cc1cnc[nH]1)C(=O)N[C@@H](CC(C)C)C(=O)N[C@@H](CC(N)=O)C(=O)N[C@@H](CO)C(=O)N[C@@H](CCSC)C(=O)N[C@@H](CCC(=O)O)C(=O)N[C@@H](CCCN=C(N)N)C(=O)N[C@H](C(=O)N[C@@H](CCC(=O)O)C(=O)N[C@@H](Cc1c[nH]c2ccccc12)C(=O)N[C@@H](CC(C)C)C(=O)N[C@@H](CCCN=C(N)N)C(=O)N[C@@H](CCCCN)C(=O)N[C@@H](CCCCN)C(=O)N[C@@H](CC(C)C)C(=O)N[C@@H](CCC(N)=O)C(=O)N[C@@H](CC(=O)O)C(=O)N[C@H](C(=O)N[C@@H](Cc1cnc[nH]1)C(=O)N[C@@H](CC(N)=O)C(=O)N[C@@H](Cc1ccccc1)C(=O)O)C(C)C)C(C)C [PTH(1-34)] | more prolonged calcemic response | remained elevated | more prolonged activity in vivo | remained low | expected rise in blood calcium levels | comparable rates of clearance | not seen | expected rise in blood calcium levels | – | – | – | – |
| PTHrP(1-36) | more a transient functional response | returned to baseline | – | – | – | – | – | – | – | – | – | – |
| abaloparatide: synthetic 34-amino acid PTHrP(1-34)-based analogue, AVSEHQLLHDKGKSIQDLRRRELLEKLLXKLHTA, X is Aib (SEQ ID NO: 22) | more a transient functional response | returned to baseline | – | returned to near-vehicle control levels | – | – | – | – | complete reversal of bone loss | comparable rates of clearance | complete reversal of bone loss | more selectively than teriparatide; also recorded: greater selectivity |
